Results as given in patent EP4512396A1, “TARGETED COVALENT INHIBITORS FOR CARBONIC ANHYDRASES” (Vilnius University, priority 2023, dated 2025).

Columns and labels:
[1] = tested on: CAIX; assay: stopped-flow CO2 hydration assay before and after dialysis (irreversible enzyme inactivation); assay type: biochemical, human; settings: for catalytic activity of CAIX after 32 hours of dialysis: […] CAIX incubated 2 h with 15 µM AV19-37 or 100 µM AV19-36, dialyzed in Tris buffer pH 7
[2] = target: T1, CAIII (Homo sapiens, UniProt P07451); assay: fluorescent thermal shift assay (FTSA); assay type: binding
[3] = target: CA VB (Homo sapiens, UniProt Q9Y2D0); assay: fluorescent thermal shift assay (FTSA); assay type: binding; settings: FTSA at 37 °C and pH 7.0, read-out: Kd_app
[4] = target: CAVI (Homo sapiens, UniProt P23280); assay: fluorescent thermal shift assay (FTSA); assay type: binding; settings: FTSA at 37 °C and pH 7.0, read-out: Kd_app
[5] = target: CAVII (Homo sapiens, UniProt P43166); assay: fluorescent thermal shift assay (FTSA); assay type: binding; settings: FTSA at 37 °C and pH 7.0, read-out: Kd_app
[6] = target: CAXII (Homo sapiens, UniProt O43570); assay: fluorescent thermal shift assay (FTSA); assay type: binding; settings: FTSA at 37 °C and pH 7.0, read-out: Kd_app
[7] = target: CAXIII (Homo sapiens, UniProt Q8N1Q1); assay: fluorescent thermal shift assay (FTSA); assay type: binding; settings: FTSA at 37 °C and pH 7.0, read-out: Kd_app
[8] = target: CA XIV (Homo sapiens, UniProt Q9ULX7); assay: fluorescent thermal shift assay (FTSA); assay type: binding; settings: FTSA at 37 °C and pH 7.0, read-out: Kd_app
[9] = target: CA VA (Homo sapiens, UniProt P35218); settings: pH 7
[10] = target: CA IV (Homo sapiens, UniProt P22748); assay: biochemical
[11] = target: T1, CAIII; assay: Q-TOF mass spectrometry of covalent binding; settings: CAIII in the presence of ligand

T1 sequence (P07451 whole entry): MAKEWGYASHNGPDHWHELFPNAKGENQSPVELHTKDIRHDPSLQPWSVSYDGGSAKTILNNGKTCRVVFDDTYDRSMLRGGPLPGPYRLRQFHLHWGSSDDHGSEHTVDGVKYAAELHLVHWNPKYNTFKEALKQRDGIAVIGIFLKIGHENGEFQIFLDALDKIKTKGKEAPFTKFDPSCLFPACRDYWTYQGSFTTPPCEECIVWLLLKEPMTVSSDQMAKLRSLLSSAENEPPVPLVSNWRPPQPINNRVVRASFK
Sequence of CA XIV (Q9ULX7 16-337): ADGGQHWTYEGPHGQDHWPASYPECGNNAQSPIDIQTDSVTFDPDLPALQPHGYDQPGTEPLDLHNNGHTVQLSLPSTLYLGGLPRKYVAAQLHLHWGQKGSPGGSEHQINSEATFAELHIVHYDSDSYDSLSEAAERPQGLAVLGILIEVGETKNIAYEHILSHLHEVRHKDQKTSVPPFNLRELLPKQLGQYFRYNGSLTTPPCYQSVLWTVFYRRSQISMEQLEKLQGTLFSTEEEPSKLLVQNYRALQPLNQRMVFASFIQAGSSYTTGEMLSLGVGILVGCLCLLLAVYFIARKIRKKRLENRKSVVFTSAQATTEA
Sequence of CAXIII (Q8N1Q1 whole entry): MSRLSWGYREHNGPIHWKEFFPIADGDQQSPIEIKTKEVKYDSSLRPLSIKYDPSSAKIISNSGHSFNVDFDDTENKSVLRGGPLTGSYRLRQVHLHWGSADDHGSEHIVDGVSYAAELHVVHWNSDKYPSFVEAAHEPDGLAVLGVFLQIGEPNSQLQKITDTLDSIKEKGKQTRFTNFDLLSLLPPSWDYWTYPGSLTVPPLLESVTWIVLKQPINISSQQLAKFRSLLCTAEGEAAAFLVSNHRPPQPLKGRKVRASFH
Sequence of CAVI (P23280 21-290 limits assumed): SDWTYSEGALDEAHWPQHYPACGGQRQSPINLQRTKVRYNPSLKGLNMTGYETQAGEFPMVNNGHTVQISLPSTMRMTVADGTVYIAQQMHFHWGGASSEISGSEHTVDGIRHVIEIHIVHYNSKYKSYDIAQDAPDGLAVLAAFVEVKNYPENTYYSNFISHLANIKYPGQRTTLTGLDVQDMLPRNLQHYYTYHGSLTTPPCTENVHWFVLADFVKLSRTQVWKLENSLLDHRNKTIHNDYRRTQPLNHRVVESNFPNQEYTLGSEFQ
Sequence of CA VA (P35218 39-305): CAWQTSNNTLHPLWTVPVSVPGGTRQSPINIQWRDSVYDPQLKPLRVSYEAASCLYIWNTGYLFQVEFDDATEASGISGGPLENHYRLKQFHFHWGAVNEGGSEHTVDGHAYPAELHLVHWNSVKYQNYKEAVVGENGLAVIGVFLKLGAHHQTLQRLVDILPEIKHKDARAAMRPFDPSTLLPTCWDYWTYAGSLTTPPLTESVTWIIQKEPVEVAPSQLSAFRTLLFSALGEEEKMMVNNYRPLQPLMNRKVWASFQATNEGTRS
Sequence of CA IV (P22748 19-284): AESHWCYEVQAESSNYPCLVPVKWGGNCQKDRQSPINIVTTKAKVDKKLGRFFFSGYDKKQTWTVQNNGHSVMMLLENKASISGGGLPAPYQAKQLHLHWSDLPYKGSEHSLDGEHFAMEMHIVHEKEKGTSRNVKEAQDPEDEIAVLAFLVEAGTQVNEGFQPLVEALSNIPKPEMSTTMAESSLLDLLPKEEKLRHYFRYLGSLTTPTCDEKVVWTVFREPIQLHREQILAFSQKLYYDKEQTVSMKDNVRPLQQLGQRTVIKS
Sequence of CAXII (O43570 25-354): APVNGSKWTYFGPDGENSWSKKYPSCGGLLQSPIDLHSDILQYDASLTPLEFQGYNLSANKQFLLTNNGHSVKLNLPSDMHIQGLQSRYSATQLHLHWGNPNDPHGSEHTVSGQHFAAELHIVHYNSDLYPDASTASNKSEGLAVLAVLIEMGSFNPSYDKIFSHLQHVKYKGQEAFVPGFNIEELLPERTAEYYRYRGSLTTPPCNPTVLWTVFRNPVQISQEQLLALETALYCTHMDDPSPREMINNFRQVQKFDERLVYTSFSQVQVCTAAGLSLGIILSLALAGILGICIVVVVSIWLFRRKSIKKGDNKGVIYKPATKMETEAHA
Sequence of CA VB (Q9Y2D0 34-317): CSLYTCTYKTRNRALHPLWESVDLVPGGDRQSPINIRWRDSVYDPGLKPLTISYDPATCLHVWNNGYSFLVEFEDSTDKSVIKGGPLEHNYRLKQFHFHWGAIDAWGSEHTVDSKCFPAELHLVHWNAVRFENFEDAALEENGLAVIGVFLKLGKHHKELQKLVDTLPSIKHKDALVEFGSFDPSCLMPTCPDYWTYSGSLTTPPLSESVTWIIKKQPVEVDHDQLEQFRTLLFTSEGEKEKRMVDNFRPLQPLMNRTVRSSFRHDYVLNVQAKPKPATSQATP
Sequence of CAVII (P43166 whole entry): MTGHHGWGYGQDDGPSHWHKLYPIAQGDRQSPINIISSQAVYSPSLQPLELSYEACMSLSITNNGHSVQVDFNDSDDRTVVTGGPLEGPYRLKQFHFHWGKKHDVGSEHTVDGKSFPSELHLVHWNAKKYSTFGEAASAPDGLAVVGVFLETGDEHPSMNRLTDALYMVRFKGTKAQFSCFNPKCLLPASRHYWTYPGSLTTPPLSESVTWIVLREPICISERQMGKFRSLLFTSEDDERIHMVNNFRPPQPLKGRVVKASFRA

Compound	catalytic activity of CAIX after 32 hours of dialysis [1]	Kd [2] [µM]	Kd [3] [nM]	Kd [4] [nM]	Kd [5] [nM]	Kd [6] [nM]	Kd [7] [nM]	Kd [8] [nM]	Kd [9] [nM]	Kd [10] [nM]	catalytic activity of CAIX after 2 hours of incubation with compound ([1]; […] CAIX, 15 µM AV19-37, CO2 hydration, 25 °C, pH 7.5)	covalent modification by MS [11]
CC(=O)OCCSc1c(F)c(F)c(S(N)(=O)=O)c(F)c1F [AV19-36, 2-((2,3,5,6-tetrafluoro-4-sulfamoylphenyl)thio)ethyl acetate]	partially restored its catalytic activity											
NS(=O)(=O)c1c(F)c(F)c(S(=O)(=O)CCOC(=O)Cc2ccccc2)c(F)c1F [AV21-25, 2-((2,3,5,6-tetrafluoro-4-sulfamoylphenyl)sulfonyl)ethyl 2-phenylacetate]		18	0.017	0.36	0.83	0.072	0.012	0.28	2.5	45		
CC(=O)OCCS(=O)(=O)c1c(F)c(F)c(S(N)(=O)=O)c(F)c1NC1CCCCCCC1 [AV19-37, 2-((2-(cyclooctylamino)-3,5,6-trifluoro-4-sulfamoylphenyl)sulfonyl)ethyl acetate]	not restored										lost its catalytic activity	did not show a covalent modification
